Data on two compounds can be found in patent publication US10888541B2, “Method and compositions for treatment and prevention of broad spectrum virus ailments comprising a calcium channel blocker or a calmodulin blocker” (DR. KENNETH ADAMS MEDICINE PROFESSIONAL CORPORATION, priority 2009, dated 2021).

Assay [1] is described as follows: Case report: Rheumatoid Arthritis of the hands, topical ointment. Conditions: for pain in hand: person, within hours of applying; for mobility of joints: sustained applications over several days.
In assay [2] the test system is cold sores. Briefly: Case reports: recurrent cold sores, topical application. Conditions: Patient A, 100 mg/ml topically. It is filed as in vivo, human.
For assay [3], the system named is Genital Herpes. As to the kind of experiment: Case report: recurrent Genital Herpes. It is filed as in vivo, human. The source says: Patient with a long history of recurrent Genital Herpes was using Diltiazem.
In assay [4] the test system is viral upper respiratory infection. As to the kind of experiment: Case report: viral upper respiratory infection, intranasal/throat spray.
Description: person with symptoms of viral upper respiratory infection started experiencing nasal congestion and nasal discharge.
For assay [5], the system named is HIV. As to the kind of experiment: Case report: HIV patient, T4 helper counts. It is filed as in vivo, human. The conditions noted are these: 240 mg (120 mg of verapamilSR) twice daily for 2 weeks.
Assay [6] can be described thus: Case report: fever, chills, muscle aches, nausea and diarrhea. It is filed as in vivo, human. The conditions noted are these: person; 120 mg tablets every 8 hours; within one hour of first tablet. The source says:
A person with a three day history of fever, chills, muscle aches and nausea. On the second and third days the patient developed increasing diarrhea. On the morning of the third day the patient was experiencing loose, watery stools with a cramps and lower abdominal pain.

The nature of assay [7]: Case report: latex glove allergy (delayed hypersensitivity reaction). It is filed as in vivo, human. The source says: A person surgeon with a latex glove allergy. Symptoms of a red eczematous rash develops when they use latex gloves.
The test system of assay [8] is Herpes Zoster infection. Briefly: Case report: Herpes Zoster infection. It is filed as in vivo, human. The conditions noted are these: elderly patient; 120 mg SR twice daily. The source says:
Elderly patient with Herpes Zoster infection on the upper left abdomen.

As for `COc1ccc([C@@H]2Sc3ccccc3N(CCN(C)C)C(=O)[C@@H]2OC(C)=O)cc1` [Diltiazem, diltiazem], in assay [1], the pain in hand result is reported as “significant reduction of pain in their hand” and the mobility of joints result is “improved mobility of joints”. In addition, in assay [2], the “cold sore infection when applied in the initial tingling phase” value is given as “the infection could be prevented”; the “severity and size of cold sore when application delayed until eruption visible” value is listed as “minimize the severity, reduce the size”. In assay [2] (application delayed until eruption visible, usual 7 days), the “time to complete healing clearance” value was 2 to 4 days. The “frequency of genital herpes recurrences” value in assay [3] (after starting treatment, before: several episodes per year) is 1-2 episodes per year. The “size and healing of genital herpes episodes” value in assay [3] (when on treatment) was “much smaller and seemed to heal much quicker”.
On to `COc1ccc(CCN(C)CCCC(C#N)(c2ccc(OC)c(OC)c2)C(C)C)cc1OC` (centres unmarked) [Verapamil, verapamil], for which, in assay [1], the pain in hand entry is recorded as “significant reduction of pain in their hand” and the mobility of joints entry is given as “improved mobility of joints”. Further, the “time until nasal discharge stopped” value in assay [4] (0.2 ml of 2 mg/ml sprayed into each nostril and back of throat) is reported as “approximately 20 minutes”. In assay [4] (next day, after repeated 0.1 ml applications intranasally and to throat), the upper respiratory symptoms entry is recorded as “cleared”. For the same compound, in assay [4] (person, 0.2 ml of 2 mg/ml sprayed into each nostril and back of throat, within minutes), the “nasal congestion and nasal discharge” value is “reduction in nasal congestion and decreased nasal discharge”. Moreover, the T4 helper counts entry in assay [5] is reported as “significant rise in T4 helper counts”. Moreover, the “abdominal cramping, stools and diarrhea” value in assay [6] was “abdominal cramping began subsiding and their stools began to become more formed and diarrhea improved”. The “chronic rash from daily exposure to latex” value in assay [7] (200 mg/ml ointment) was “improved within hours”. Besides, the “delayed hypersensitivity reaction to latex gloves” value in assay [7] (200 mg/ml ointment applied prior to wearing latex gloves) is reported as “prevented”. Further, the “pain, rash and healing of lesions” value in assay [8] is “reduced pain, reduced rash and rapid healing of lesions”.
